Drawing on patent US20090042820A1, “Tubulin Binding Anti Cancer Agents And Prodrugs Thereof” (Threshold Pharmaceuticals, Inc., priority 2004, published 2009), this text covers GI50 and IC90 for 48 compounds.

The experiment relates to H460 cells. Description: Alamar Blue antiproliferation assay, H460 cell line. It is filed as cell-based, human. The method, then:
To determine the effect of the compounds of the present invention on cell proliferation, the antiproliferative activity of these compounds was tested in a multi-well Alamar Blue based assay (at 2 h and 3 days). Cell growth in the presence and absence of the test compound as tabulated in Table 1 was compared, as measured by a fluorescence plate reader at excitation 550 nm and emission 590 nm (see Biosource International Inc., Tech Application Notes, Use of Alamar Blue in the measurement of Cell Viability and Toxicity, Determining IC50). H460 cells (ATCC HTB-177 ([…]), 4,000 cells/well/200 μl) and LNCap cells (ATCC CRL-1740, 6,000 cells/well/200 μl) were seeded in a 96 well plate in RPMI medium (Invitrogen Corporation, Carlsbad, Calif.). After 24 hours, these plates were divided into 3 groups—Control group, 2 h treatment group and 3 day treatment group.
In the 2 h treatment group, after 2 h the cells were rinsed to remove the test compound and incubated for 3 days, followed by staining with AlamarBlue. The cells in the 3-day treatment group were incubated for 3 days, followed by staining with AlamarBlue. In the Control group, AlamarBlue was added to the plate at (i) day 0 and (ii) day 3 and measured to establish the control reading. In all the groups, the capacity of the cells to proliferate was measured 6 hours after addition of AlamarBlue by a fluorescence plate reader at excitation 550 nm and emission 590 nm.
(Resazurin is reduced to fluorescent resorufin, in cell work by metabolically active cells.)

The mark [1] stands for this setting: Homo sapiens, NCI-H460, 2 h treatment, then 3 days incubation, read-out: GI50 (nM) 2 Hour.
The mark [2] stands for this setting: Homo sapiens, NCI-H460, 2 h treatment, then 3 days incubation, read-out: GI90 (nM) 2 Hour.
The mark [3] stands for this setting: Homo sapiens, NCI-H460, 72 h, 3 day treatment, read-out: GI50 (nM) 3 Days.
[4] abbreviates: Homo sapiens, NCI-H460, 72 h, 3 day treatment, read-out: GI90 (nM) 3 Day.

Read-outs that look alike come from different tables or passages of the source. Bounds are passed on as bounds.

As usually defined, the GI50 is the concentration giving 50% growth inhibition. Regarding `COc1ccc2c(C(=O)c3cc(OC)c(OC)c(OC)c3)n[nH]c2c1` [Compound 9], the 50% growth inhibitory concentration (GI50) is over 1000 nM under setting [1] and 100 nM under setting [3]. In addition, the IC90 was over 1000 nM under setting [2] and 316 nM under setting [4].

Turning to `COc1ccc2c(/C(=N/N)c3cc(OC)c(OC)c(OC)c3)n[nH]c2c1` [Compound 10], the concentration for 50% growth inhibition (GI50) is over 1000 nM under setting [1] and 398 nM under setting [3]. Besides, the IC90 is over 1000 nM under setting [2] and 1000 nM under setting [4].

On to `COc1ccc2c(/C(=N/O)c3cc(OC)c(OC)c(OC)c3)n[nH]c2c1` [Compound 11], for which the GI50 is over 1000 nM under setting [1] and 631 nM under setting [3]. The IC90 was over 1000 nM under setting [2] and over 1000 nM under setting [4].

Consider `COc1ccc2c(C(=O)c3cc(OC)c(OC)c(OC)c3)nn(C)c2c1` [Compound 12], for which the GI50 was over 1000 nM under setting [1] and over 1000 nM under setting [3]. In addition, the IC90 under setting [2] was over 1000 nM and the IC90 under setting [4] is over 1000 nM.

With `COc1ccc2c(C(=O)c3cc(OC)c(OC)c(OC)c3)n(C)nc2c1` [Compound 13], the GI50 by setting is: under setting [1], over 1000 nM; under setting [3], over 1000 nM. Moreover, the IC90 is over 1000 nM under setting [2] and over 1000 nM under setting [4].

On to `COc1ccc2c(C(=O)c3cc(OC)c(OC)c(OC)c3)n(Cc3ccccc3)nc2c1` [Compound 17], for which the GI50 under setting [1] is over 1000 nM and the 50% growth inhibitory concentration (GI50) under setting [3] is over 1000 nM. The IC90 by setting is: under setting [2], over 1000 nM; under setting [4], over 1000 nM.

As to `COc1ccc2c(c1)N=N/C2=C/c1cc(OC)c(OC)c(OC)c1` [Compound 19], the GI50 reads like this: under setting [1], over 10000 nM; under setting [3], over 1000 nM. Further, the IC90 is over 1000 nM under setting [2] and over 1000 nM under setting [4].

With `COc1ccc2c(C(=O)c3cc(OC)c(OC)c(OC)c3)nn(C(=O)c3ccccc3)c2c1` [Compound 20], the GI50 by setting is: under setting [1], 630 nM; under setting [3], 100 nM.

As to `COc1cc(C(=O)c2n[nH]c3c(Cl)c(OC)ccc23)cc(OC)c1OC` [Compound 21], the GI50 under setting [1] is over 10000 nM and the GI50 under setting [3] amounted to 40 nM.

Take `COc1cc(C(=O)c2n[nH]c3c(I)c(OC)ccc23)cc(OC)c1OC` [Compound 22]: the GI50 under setting [1] was over 10000 nM and the GI50 under setting [3] was 40 nM.

`COc1ccc2c(C(=O)c3cc(OC)c(OC)c(OC)c3)nn(S(=O)(=O)c3ccc([N+](=O)[O-])cc3)c2c1` [Compound 23]: the GI50 under setting [1] is 630 nM and the 50% growth inhibitory concentration (GI50) under setting [3] was found to be 100 nM.

Turning to `COc1ccc2c(C(=O)c3cc(OC)c(OC)c(OC)c3)nn(S(=O)(=O)c3ccc(N)cc3)c2c1` [Compound 24], the GI50 stood at 10000 nM under setting [1] and 501 nM under setting [3].

Consider `COc1ccc2c(C(=O)c3cc(OC)c(OC)c(OC)c3)nn(S(=O)(=O)c3cccc4ccccc34)c2c1` [Compound 25], for which the concentration for 50% growth inhibition (GI50) is over 10000 nM under setting [1] and 630 nM under setting [3].

Take `COc1ccc2c(C(=O)c3cc(OC)c(OC)c(OC)c3)nn(S(=O)(=O)c3ccc4ccccc4c3)c2c1` [Compound 26]: the concentration for 50% growth inhibition (GI50) reads like this: under setting [1], over 10000 nM; under setting [3], 630 nM.

Turning to `COc1ccc2c(C(=O)c3cc(OC)c(OC)c(OC)c3)nn(P(=O)(OCc3ccccc3)OCc3ccccc3)c2c1` [Compound 27], the GI50 runs as follows: under setting [1], over 10000 nM; under setting [3], 251 nM.

As for `COc1ccc2c(C(=O)c3cc(OC)c(OC)c(OC)c3)nn(S(=O)(=O)c3ccc(O)cc3)c2c1` [Compound 29], the concentration for 50% growth inhibition (GI50) is, setting by setting: under setting [1], over 10000 nM; under setting [3], 630 nM.

Turning to `COc1cc(C(=O)c2n[nH]c3c(S(=O)(=O)c4ccc(OCc5ccccc5)cc4)c(OC)ccc23)cc(OC)c1OC` [Compound 31], the GI50 is, setting by setting: under setting [1], over 10000 nM; under setting [3], over 10000 nM.

For `COc1ccc2c3n(nc2c1)Cc1c(cc(OC)c(OC)c1OC)C3=O` [Compound 32], the concentration for 50% growth inhibition (GI50) reads like this: under setting [1], over 10000 nM; under setting [3], over 10000 nM.

Consider `COc1ccc2c(C(=O)c3cc(OC)c(OC)c(OC)c3)nn(S(=O)(=O)Cc3ccc([N+](=O)[O-])cc3)c2c1` [Compound 33], for which the GI50 by setting is: under setting [1], over 10000 nM; under setting [3], 1000 nM.

On to `COc1ccc2c(C(=O)c3cc(OC)c(OC)c(OC)c3)nn(C(=O)Cc3ccc(OCc4ccccc4)cc3)c2c1` [Compound 34], for which the GI50 was over 10000 nM under setting [1] and 126 nM under setting [3].

For the compound `COc1cc(C(=O)c2n[nH]c3c(C#CC(C)(C)O)c(OC)ccc23)cc(OC)c1OC` [Compound 36], the 50% growth inhibitory concentration (GI50) is, setting by setting: under setting [1], over 10000 nM; under setting [3], 63 nM.

Regarding `COc1cc(C(=O)c2nn(Cc3ncc([N+](=O)[O-])n3C)c3c(Br)c(OC)ccc23)cc(OC)c1OC` [Compound 38], the GI50 was over 10000 nM under setting [1] and 631 nM under setting [3].

Take `COc1ccc2[nH]nc(C(=O)c3cc(OC)c(OC)c(OC)c3)c2c1` [Compound 42]: the 50% growth inhibitory concentration (GI50) is over 1000 nM under setting [1] and over 1000 nM under setting [3]. The IC90 was over 1000 nM under setting [2] and over 1000 nM under setting [4].

With `COc1cc(C(=O)c2n[nH]c3ccc(F)cc23)cc(OC)c1OC` [Compound 43], the GI50 reads like this: under setting [1], over 10000 nM; under setting [3], over 10000 nM. The IC90 is over 1000 nM under setting [2] and over 1000 nM under setting [4].

Take `COc1ccc2c(/C(=N/NC(C)=O)c3cc(OC)c(OC)c(OC)c3)n[nH]c2c1` [Compound 44]: the GI50 was over 5000 nM under setting [1] and 1580 nM under setting [3]. In addition, the IC90 under setting [2] was over 5000 nM and the IC90 under setting [4] is over 5000 nM.

Turning to `COc1ccc2c(C(=O)c3cc(OC)c(OC)c(OC)c3N)n[nH]c2c1` [Compound 45], the GI50 under setting [3] was determined as 158 nM.

On to `COc1ccc2c(C(=O)c3cc(OC)c(OC)c(OC)c3)nn(S(=O)(=O)c3ccc(C)cc3)c2c1` [Compound 47], for which the GI50 under setting [3] came to 25 nM.

In the case of `COc1ccc2c(C(=O)c3cc(OC)c(OC)c(OC)c3Br)nn(S(=O)(=O)c3ccc(C)cc3)c2c1` [Compound 48], the GI50 under setting [3] stood at 630 nM.

With `COc1ccc2c(C(=O)c3cc(OC)c(OC)c(OC)c3)nn(P(=O)(OC)OC)c2c1` [Compound 49], under setting [3], the GI50 is 15.8 nM.

As for `CCC(=O)n1nc(C(=O)c2cc(OC)c(OC)c(OC)c2)c2ccc(OC)cc21` [Compound 50], the concentration for 50% growth inhibition (GI50) runs as follows: under setting [1], over 10000 nM; under setting [3], 20 nM.

Regarding `COc1cc(C(=O)c2n[nH]c3c(C#CCNC(=O)C(F)(F)F)c(OC)ccc23)cc(OC)c1OC` [Compound 52], the GI50 is, setting by setting: under setting [1], over 1000 nM; under setting [3], 100 nM.

For `COc1cc(C(=O)c2n[nH]c3c(C#CCN)c(OC)ccc23)cc(OC)c1OC` [Compound 53], the 50% growth inhibitory concentration (GI50) under setting [1] was 630 nM and the concentration for 50% growth inhibition (GI50) under setting [3] is 158 nM.

Consider `COc1ccc2c(C(=O)c3cc(OC)c(OC)c(OC)c3)nn(CO)c2c1` [Compound 56], for which the GI50 under setting [1] is over 10000 nM and the concentration for 50% growth inhibition (GI50) under setting [3] was found to be 50.1 nM.

Consider `COc1cc(C(=O)c2n[nH]c3c(C(=O)O)c(OC)ccc23)cc(OC)c1OC` [Compound 59], for which the concentration for 50% growth inhibition (GI50) was over 1000 nM under setting [1] and 794 nM under setting [3].

Take `COc1cc(C(=O)c2n[nH]c3c(CCCCO)c(OC)ccc23)cc(OC)c1OC` [Compound 61]: the GI50 is, setting by setting: under setting [1], over 1000 nM; under setting [3], over 1000 nM.

Consider `COc1ccc2c(C(=O)c3cc(OC)c(OC)c(OC)c3)nn(CC(=O)O)c2c1` [Compound 62], for which the 50% growth inhibitory concentration (GI50) under setting [1] was over 1000 nM and the GI50 under setting [3] is 630 nM.

On to `COc1ccc2c(C(=O)c3cc(OC)c(OC)c(OC)c3)nn(CC(N)=O)c2c1` [Compound 63], for which the GI50 was over 1000 nM under setting [1] and 630 nM under setting [3].

As for `COc1ccc2c(C(=O)c3cc(OC)c(OC)c(OC)c3)nn(CCO)c2c1` [Compound 64], the GI50 is over 1000 nM under setting [1] and 630 nM under setting [3].

`COc1cc(C(=O)c2n[nH]c3c(CCC(C)(C)O)c(OC)ccc23)cc(OC)c1OC` [Compound 65]: the concentration for 50% growth inhibition (GI50) reads like this: under setting [1], over 1000 nM; under setting [3], over 1000 nM.

For `COc1cc(C(=O)c2n[nH]c3c(C#Cc4cccc(O)c4)c(OC)ccc23)cc(OC)c1OC` [Compound 69], the concentration for 50% growth inhibition (GI50) under setting [3] came out at 1000 nM.

`COc1cc(C(=O)c2n[nH]c3c(C#C[C@@H](C)O)c(OC)ccc23)cc(OC)c1OC` [Compound 71]: the concentration for 50% growth inhibition (GI50) (3 day treatment, read-out: GI50 (nM) 3 Days) amounted to 12.5 nM.

`C#Cc1c(OC)ccc2c(C(=O)c3cc(OC)c(OC)c(OC)c3)nn(CC(N)=O)c12` [Compound 73]: the 50% growth inhibitory concentration (GI50) under setting [3] was 630 nM.

Take `C#Cc1c(OC)ccc2c(C(=O)c3cc(OC)c(OC)c(OC)c3)nn(CC(=O)O)c12` [Compound 74]: under setting [3], the 50% growth inhibitory concentration (GI50) was over 1000 nM.

For the compound `C#Cc1c(OC)ccc2c(C(=O)c3cc(OC)c(OC)c(OC)c3)nn(C(=O)OCc3ccc([N+](=O)[O-])o3)c12` [Compound 75], the GI50 under setting [3] was over 1000 nM.

Take `COc1cc(C(=O)c2n[nH]c3c(C#CC=O)c(OC)ccc23)cc(OC)c1OC` [Compound 76]: under setting [3], the GI50 is 79.4 nM.

With `COc1cc2[nH]nc(C(=O)c3cc(OC)c(OC)c(OC)c3)c2cc1OC` [Compound 77], the GI50 under setting [3] was over 1000 nM.

Regarding `C#Cc1c(OC)ccc2c(C(=O)c3cc(OC)c(OC)c(OC)c3)nn([C@@H]3OC(CO)[C@@H](O)[C@H](O)C3O)c12` (stereo partly shown) [Compound 80], the GI50 under setting [3] was over 1000 nM.

Regarding `COc1ccc2c(C(=O)c3cc(OC)c(OC)c(OC)c3)n(CO)nc2c1` [Compound 81], the 50% growth inhibitory concentration (GI50) under setting [3] is over 1000 nM.
